The text below walks through data of patent US10399933B2, “Inhibitors of indoleamine-2,3-dioxygenase for the treatment of cancer” (BRISTOL-MYERS SQUIBB COMPANY, priority 2015, dated 2019).

Bounds are passed on as bounds.

human IDO1, sequence (P14902 whole entry): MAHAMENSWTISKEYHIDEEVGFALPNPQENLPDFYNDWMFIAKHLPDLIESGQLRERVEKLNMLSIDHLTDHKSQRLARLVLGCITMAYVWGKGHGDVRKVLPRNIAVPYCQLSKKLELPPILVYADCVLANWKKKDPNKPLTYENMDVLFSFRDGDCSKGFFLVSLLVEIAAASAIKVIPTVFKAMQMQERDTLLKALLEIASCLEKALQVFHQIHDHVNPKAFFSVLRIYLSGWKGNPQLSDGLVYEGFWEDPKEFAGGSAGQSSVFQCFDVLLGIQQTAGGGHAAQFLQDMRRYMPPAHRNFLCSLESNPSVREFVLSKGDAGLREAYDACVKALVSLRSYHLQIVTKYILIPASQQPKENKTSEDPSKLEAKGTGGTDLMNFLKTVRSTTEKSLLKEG

The assay addresses human IDO1 (Homo sapiens, UniProt P14902). The experiment in a line: Human IDO-1 inhibitory activity in HEK cells (human IDO1/HEK293 cellular assay). The format is cell-based. Conditions: HEK human IDO-1 cellular assay; 500 nM reference standard = 100% inhibition, DMSO = 0%. Also on record: expressed in transfected cells. On the procedure: They were cultured in medium (DMEM with 10% FBS) containing 1 mg/ml G418 for two weeks.
The human IDO1/HEK293 cells were seeded at 10,000 cells per 50 μL per well with RPMI/phenol red free media contains 10% FBS in a 384-well black wall clear bottom tissue culture plate (Matrix Technologies LLC) 100 nL of certain concentration of compound was then added to each well using ECHO liquid handling systems. The cells were incubated for 20 hours in 37° C. incubator with 5% CO2.
The compound treatments were stopped by adding trichloroacetic acid (Sigma-Aldrich) to a final concentration at 0.2%. The cell plate was further incubated at 50° C. for 30 minute. The equal volume supernatant (20 μL) and 0.2% (w/v) Ehrlich reagent (4-dimethylaminobenzaldehyde, Sigma-Aldrich) in glacial acetic acid were mixed in a new clear bottom 384-well plate. This plate was then incubated at room temperature for 30 minute. The absorbance at 490 nm was measured on Envision plate reader.
The IC50 is the concentration needed to halve the response being measured. `CCC(CC(=O)O)c1ccc(N2CCCC2C(C)(C)F)c(NC(=O)Nc2ccc(OC)cc2F)c1` [Example 787, 3-(3-(3-(2-fluoro-4-methoxyphenyl)ureido)-4-((S)-2-(2-(fluoropropan-2-yl)pyrrolidin-1-yl)phenyl)pentanoic acid] yielded a half-inhibitory concentration (IC50) of over 50 nM.

`CCN(c1ccc(C(CC(=O)O)c2ccccc2)cc1NC(=O)Nc1cc(C)on1)C1CCOCC1` (single isomer, unassigned) [Example 597, 3-(4-(ethyl(tetrahydro-2H-pyran-4-yl)amino)-3-(3-(5-methylisoxazol-3-yl)ureido)phenyl)-3-phenylpropanoic acid] came in with an IC50 of over 50 nM.

“(+/−)-Methyl 3-(4-(isobutyl((1 r,4r)-4-methoxycyclohexyl)amino)-3-(3-(p-tolyl)ureido)phenyl)-4-methoxybutanoate [Example 1005]” returned an IC50 of over 50 nM.

Compound `CCC(CC(=O)O)c1cc(F)c(N(CC(C)C)C2CCCCC2)c(NC(=O)Cc2ccc(C)cc2)c1` (single isomer, unassigned) [Example 1101 E1] gave an IC50 of under 5 nM.

In the case of `CCOc1ncc(Nc2cc(C(CC)CC(=O)O)cc(F)c2N(CC(C)C)CC(C)C)cn1` (single isomer, unassigned) [Example 119, 3-(4-(diisobutylamino)-3-((2-ethoxypyrimidin-5-yl)amino)-5-fluorophenyl) pentanoic acid], the IC50 is under 5 nM.

Regarding `CCN(c1ccc([C@H](COC)CC(=O)O)cc1Nc1cnc(OC)nc1)C1CCOCC1` (single isomer, unassigned) [Example 387], the half-inhibitory concentration (IC50) is under 50 nM.

`CCN(c1ccc(C(COC(C)C)CC(=O)O)cc1Nc1ccc(F)cc1)C1CCS(=O)(=O)CC1` (stereo not drawn) [Example 316] registered an IC50 of under 50 nM.

Turning to “3-(4-((1,1-dioxidotetrahydro-2H- thiopyran-4-yl)(ethyl)amino)-3-((4- fluorophenyl)amino)phenyl)-4- isopropoxybutanoic acid [Example 338]”, the IC50 was under 50 nM.

Compound `CCC(CC(=O)O)c1ccc(N(CCC(C)C)C2CCCCC2)c(NC(=O)Cc2ccc(C)cc2)c1` (single isomer, unassigned) [Example 1099 E1] yielded an IC50 of under 50 nM.

`CCC(CC(=O)O)c1ccc(N(CC)C2CCOCC2)c(NC(=O)Nc2ccc(C)cc2)c1` (single isomer, unassigned) [Example 487 Enantiomer 2, 3-(4-(Ethyl(tetrahydro-2H-pyran-4-yl)amino)-3-(3-(p-tolyl)ureido)phenyl)pentanoic Acid]: the IC50 is under 5 nM.

With `CCC(CC(=O)O)c1ccc(N2CCC[C@H]2C(C)(C)F)c(NC(=O)Nc2ccc(OC)cc2F)c1` (single isomer, unassigned) [Example 793], the IC50 was over 50 nM.

In the case of `CCN(c1ccc(C(COC(C)C)CC(=O)O)cc1Nc1ccc(F)cc1)C1CCS(=O)(=O)CC1` (stereo not drawn) [Example 336], the IC50 was under 50 nM.
